Measurements published in article PMC8389922, “First-in-Class Cyclic Temporin L Analogue: Design, Synthesis, and Antimicrobial Assessment” (Journal of Medicinal Chemistry, 2021).
In brackets after ≈: the same amount, converted by molar mass. Bridge positions count the residues as written; N and C are the ends. Square brackets hold non-standard residues; d marks the D form. Triazole bridges read from a SMILES are 1,4-linked. Peptide text beside a SMILES is read from it. dLys(N3) = [N-]=[N+]=NCCCC[C@@H](N)C(=O)O; Lys(N3) = [N-]=[N+]=NCCCC[C@H](N)C(=O)O; dPra = C#CC[C@@H](N)C(=O)O; Pra = C#CC[C@H](N)C(=O)O

Experiments:
A. baumannii ATCC 19606 = assay type: cell-based, Acinetobacter baumannii
Procedure: (§1) The antimicrobial activity of peptides 9–26 was assessed against a range of reference bacterial strains such as S. aureus ATCC 25923, Staphylococcus epidermidis ATCC 12228, Bacillus megaterium Bm11, E. coli ATCC 25922, P. aeruginosa ATCC 27853, and A. baumannii ATCC 19606 by the broth microdilution assay to determine the minimal growth inhibitory concentration (MIC, Table 1).[59] First, we evaluated the effects produced by the lactam bridge between Lys and Glu residues placed at different positions along the peptide sequence of reference 9. […] When the i,i+7 cyclization strategy was applied (20–23), a dramatic decrease of bacterial inhibition activity was observed. Specifically, the peptides 20, 22, and 23 only affected the microbial growth of the Gram-positive B. megaterium Bm11, at 12.5 μM. […] Peptide 25, which differs from 9 by the presence of an olefin bridge rather than lactam one, dramatically lost the activity (MIC > 100 μM) vs both Gram-positive and Gram-negative strains.
(§2) The determination of MICs was conducted as previously reported.[61] Aliquots of 50 μL of bacterial culture appropriately diluted were added to each well of a 96-well plate to reach a final cell density of 1 × 10^6 CFU/mL and a final peptide concentration ranging from 100 to 0.78 μM (final volume 100 μL).

[1] = system: S. epidermidis ATCC 12228; assay type: cell-based, Staphylococcus epidermidis
Procedure: as §1, §2

P. aeruginosa ATCC 27853 = assay type: cell-based, Pseudomonas aeruginosa
Procedure: as §1, §2

E. coli ATCC 25922 = assay type: cell-based, Escherichia coli
Procedure: as §1, §2

S. aureus ATCC 25923 = assay type: cell-based, Staphylococcus aureus
Procedure: as §1, §2

B. megaterium Bm11 = assay type: cell-based, Bacillus megaterium
Procedure: as §1, §2

SMILES | MIC A. baumannii ATCC 19606 (A. baumannii ATCC 19606) [µM] | MIC S. epidermidis ATCC 12228 [1] [µM] | MIC P. aeruginosa ATCC 27853 (P. aeruginosa ATCC 27853) [µM] | MIC E. coli ATCC 25922 (E. coli ATCC 25922) [µM] | MIC S. aureus ATCC 25923 (S. aureus ATCC 25923) [µM] | MIC B. megaterium Bm11 (B. megaterium Bm11) [µM]
CC[C@H](C)[C@@H]1NC(=O)[C@H](CCCNC(=N)N)NC(=O)CNC(=O)[C@H](NC(=O)[C@H](Cc2ccccc2)NC(=O)[C@H](CCCCN)NC(=O)[C@H](CO)NC(=O)[C@H](Cc2ccccc2)NC(=O)[C@H](Cc2c[nH]c3ccccc23)NC(=O)[C@@H]2CCCN2C(=O)[C@@H](NC(=O)[C@@H](N)Cc2ccccc2)C(C)C)CCCCNC(=O)CC[C@@H](C(N)=O)NC1=O [compound 10] | >100 | >100 | >100 | >100 | >100 | 50 (≈ 81.1 µg/mL)
CC(C)C[C@H](NC(=O)[C@@H]1CCC(=O)NCCCC[C@H](NC(=O)[C@H](CCCCN)NC(=O)[C@H](CO)NC(=O)[C@H](Cc2ccccc2)NC(=O)[C@H](Cc2c[nH]c3ccccc23)NC(=O)[C@@H]2CCCN2C(=O)[C@@H](NC(=O)[C@@H](N)Cc2ccccc2)C(C)C)C(=O)N[C@H](CC(C)C)C(=O)NCC(=O)N[C@@H](CCCNC(=N)N)C(=O)N1)C(N)=O [compound 11] (H-FVPWFSKK[dL]GREL-NH2; lactam 8-12) | >100 | >100 | >100 | >100 | >100 | 50 (≈ 79.4 µg/mL)
CC[C@H](C)[C@H](NC(=O)[C@H](CCCNC(=N)N)NC(=O)CNC(=O)[C@H]1CCC(=O)NCCCC[C@H](NC(=O)[C@H](Cc2c[nH]c3ccccc23)NC(=O)[C@@H]2CCCN2C(=O)[C@@H](NC(=O)[C@@H](N)Cc2ccccc2)C(C)C)C(=O)N[C@@H](CO)C(=O)N[C@@H](CCCCN)C(=O)N[C@@H](Cc2ccccc2)C(=O)N1)C(=O)N[C@@H](CC(C)C)C(N)=O [compound 13] (H-FVPWKSKF[dE]GRIL-NH2; lactam 5-9) | >100 | >100 | >100 | >100 | >100 | 100 (≈ 159 µg/mL)
CC[C@H](C)[C@H](NC(=O)[C@H](CCCNC(=N)N)NC(=O)CNC(=O)[C@@H](CC(C)C)NC(=O)[C@@H]1CCC(=O)NCCCC[C@H](NC(=O)[C@@H]2CCCN2C(=O)[C@@H](NC(=O)[C@@H](N)Cc2ccccc2)C(C)C)C(=O)N[C@@H](Cc2ccccc2)C(=O)N[C@@H](CO)C(=O)N[C@@H](CCCCN)C(=O)N1)C(=O)N[C@@H](CC(C)C)C(N)=O [compound 14] (H-FVPKFSKE[dL]GRIL-NH2; lactam 4-8) | >100 | >100 | >100 | >100 | >100 | >100
CC[C@H](C)[C@@H]1NC(=O)[C@H](CCCNC(=N)N)NC(=O)CNC(=O)[C@H](NC(=O)[C@H](Cc2ccccc2)NC(=O)[C@H](CCCCN)NC(=O)[C@H](CO)NC(=O)[C@H](Cc2ccccc2)NC(=O)[C@H](Cc2c[nH]c3ccccc23)NC(=O)[C@@H]2CCCN2C(=O)[C@@H](NC(=O)[C@@H](N)Cc2ccccc2)C(C)C)Cc2cn(nn2)CCCC[C@@H](C(N)=O)NC1=O [compound 15] (H-FVPWFSKF[dPra]GRI[Lys(N3)]-NH2; triazole 9-13) | 100 (≈ 163 µg/mL) | >100 | >100 | >100 | >100 | 25 (≈ 40.8 µg/mL)
CC(C)C[C@H](NC(=O)[C@@H]1CCCCn2cc(nn2)C[C@H](NC(=O)[C@H](CCCCN)NC(=O)[C@H](CO)NC(=O)[C@H](Cc2ccccc2)NC(=O)[C@H](Cc2c[nH]c3ccccc23)NC(=O)[C@@H]2CCCN2C(=O)[C@@H](NC(=O)[C@@H](N)Cc2ccccc2)C(C)C)C(=O)N[C@H](CC(C)C)C(=O)NCC(=O)N[C@@H](CCCNC(=N)N)C(=O)N1)C(N)=O [compound 16] (H-FVPWFSK[Pra][dL]GR[Lys(N3)]L-NH2; triazole 8-12) | 25 (≈ 39.9 µg/mL) | >100 | >100 | 50 (≈ 79.9 µg/mL) | >100 | 25 (≈ 39.9 µg/mL)
CC[C@H](C)[C@H](NC(=O)[C@H](CCCNC(=N)N)NC(=O)CNC(=O)[C@H]1CCCCn2cc(nn2)C[C@H](NC(=O)[C@H](Cc2c[nH]c3ccccc23)NC(=O)[C@@H]2CCCN2C(=O)[C@@H](NC(=O)[C@@H](N)Cc2ccccc2)C(C)C)C(=O)N[C@@H](CO)C(=O)N[C@@H](CCCCN)C(=O)N[C@@H](Cc2ccccc2)C(=O)N1)C(=O)N[C@@H](CC(C)C)C(N)=O [compound 18] (H-FVPW[Pra]SKF[dLys(N3)]GRIL-NH2; triazole 5-9) | 100 (≈ 160 µg/mL) | >100 | >100 | 100 (≈ 160 µg/mL) | >100 | 6.25 (≈ 9.99 µg/mL)
CC[C@H](C)[C@H](NC(=O)[C@H](CCCNC(=N)N)NC(=O)CNC(=O)[C@@H](CC(C)C)NC(=O)[C@@H]1CCCCn2cc(nn2)C[C@H](NC(=O)[C@@H]2CCCN2C(=O)[C@@H](NC(=O)[C@@H](N)Cc2ccccc2)C(C)C)C(=O)N[C@@H](Cc2ccccc2)C(=O)N[C@@H](CO)C(=O)N[C@@H](CCCCN)C(=O)N1)C(=O)N[C@@H](CC(C)C)C(N)=O [compound 19] (H-FVP[Pra]FSK[Lys(N3)][dL]GRIL-NH2; triazole 4-8) | >100 | >100 | >100 | >100 | >100 | 12.5 (≈ 19.1 µg/mL)
CC[C@H](C)[C@@H]1NC(=O)[C@H](CCCNC(=N)N)NC(=O)CNC(=O)[C@@H](CC(C)C)NC(=O)[C@H](Cc2ccccc2)NC(=O)[C@H](CCCCN)NC(=O)[C@@H](NC(=O)[C@H](Cc2ccccc2)NC(=O)[C@H](Cc2c[nH]c3ccccc23)NC(=O)[C@@H]2CCCN2C(=O)[C@@H](NC(=O)[C@@H](N)Cc2ccccc2)C(C)C)CCCCNC(=O)CC[C@@H](C(N)=O)NC1=O [compound 20] (H-FVPWFKKF[dL]GRIE-NH2; lactam 6-13) | >100 | >100 | >100 | >100 | >100 | 12.5 (≈ 20.6 µg/mL)
CC(C)C[C@H](NC(=O)[C@@H]1CCC(=O)NCCCC[C@H](NC(=O)[C@H](Cc2c[nH]c3ccccc23)NC(=O)[C@@H]2CCCN2C(=O)[C@@H](NC(=O)[C@@H](N)Cc2ccccc2)C(C)C)C(=O)N[C@@H](CO)C(=O)N[C@@H](CCCCN)C(=O)N[C@@H](Cc2ccccc2)C(=O)N[C@H](CC(C)C)C(=O)NCC(=O)N[C@@H](CCCNC(=N)N)C(=O)N1)C(N)=O [compound 21] (H-FVPWKSKF[dL]GREL-NH2; lactam 5-12) | >100 | >100 | >100 | >100 | >100 | 100 (≈ 159 µg/mL)
CC[C@H](C)[C@@H]1NC(=O)[C@H](CCCNC(=N)N)NC(=O)CNC(=O)[C@@H](CC(C)C)NC(=O)[C@H](Cc2ccccc2)NC(=O)[C@H](CCCCN)NC(=O)[C@@H](NC(=O)[C@H](Cc2ccccc2)NC(=O)[C@H](Cc2c[nH]c3ccccc23)NC(=O)[C@@H]2CCCN2C(=O)[C@@H](NC(=O)[C@@H](N)Cc2ccccc2)C(C)C)Cc2cn(nn2)CCCC[C@@H](C(N)=O)NC1=O [compound 22] (H-FVPWF[Pra]KF[dL]GRI[Lys(N3)]-NH2; triazole 6-13) | 100 (≈ 166 µg/mL) | >100 | >100 | >100 | >100 | 12.5 (≈ 20.7 µg/mL)
